Source: US20100041089A1, “IMPROVED METHOD FOR DETECTING CHEMICAL […]” (priority 2006, published 2010)

Tested on: yeast genes (expressed mRNA)
Assay: DNA chip measurement of expressed mRNA of yeast genes after culture with a toxic chemical substance
Type: cell-based, Saccharomyces cerevisiae S288C
Procedure: Yeast (Saccharomyces cerevisiae S288C (a SUC2mal mel gap2 CUP1)) were cultured at 25° C. on YPD medium (yeast extract 1%, polypeptone 2%, glucose 2%). One of toxic chemical substances was added to the cell at logarithmic growth phase, and the cell was further cultured for two hours. Cell was cultured without any chemical substance in the same condition, and was used as a control. Concentrations of the chemical substances were defined to inhibit the growth of the yeast but not lead to death.
After the completion of cultivation, the culture was centrifuged to collect the cells. To the cells, sodium acetate buffer (50 mM sodium acetate, 10 mM EDTA, 1% SDS) was added, and the mixture was shaken at 65° C. for five minutes, followed by returning to room temperature, and obtaining the supernatant, which procedure was repeated two times. To the supernatant, ½ amount of a solution of phenol/chloroform (1:1) was added, and the mixture was centrifuged to give a supernatant, an equal amount of chloroform was added, and the mixture was centrifuged to give a supernatant. To the supernatant, an equal amount of isopropanol containing 0.3 M sodium acetate was added, and the mixture was allowed to stand at room temperature for 30 minutes, after which the mixture was centrifuged to give sediment of the whole RNAs. Seventy % ethanol was added to the sediment, and the mixture was again centrifuged to give sediment, which was then dried and dissolved in water. mRNA was isolated from the whole RNAs as followings. In view of the fact that a poly A chain is attached to the 3′ terminus of mRNA, a polynucleotide having a poly T structure which was immobilized on the surface of latex beads was used to trap the mRNA, and then the mRNA was washed and eluted with spine column (Oligotex-dT30<Super>mRNA Purification Kit, Takara). Reverse transcription of the mRNA was conducted with a reverse transcriptase (Super Script II Reverse Transcriptase; catalogue No. 18064-014, GibcoBRL) using fluorescence-labeled nucleotides to give cDNAs that were introduced with Cy3-dUTP or Cy5-dUTP during the reverse transcription.
The labeled cDNAs were dissolved in TE buffer (10 mM Tris-HCl/1 mM EDTA, pH 8.0), and the solution was dropped on the DNA chip containing the whole genes of yeast (DNA Chip Research Inc. Japan) so that the cDNAs were hybridized on the DNA chip at 65° C. for over 12 hours. The fluoresces intensity of the DNA chip was read with a scanner, and the ratio relative to the fluorescence intensity resulting from the absence of chemical substance was estimated as the following, which is shown in Tables 1 to 9.
In the Tables, “Intensity” indicated in the rightmost column is a value of the level of expressed mRNA of each gene in control cells as divided by the average level of the expressions of the whole genes. A gene of which mRNA level is lower in control, and is higher in cases of addition of chemical substance, is especially useful in the detection of toxic substances.
Here, when a ratio of an amount of mRNA expressed in the presence of the chemical substance to an amount of mRNA expressed in the absence of the chemical substance is two or more, then it is considered significant.

S=C([S-])NCCNC(=S)[S-].[Zn+2] [(11), Zinc N,N′-ethylenebis(dithiocarbamate)]
The level of expressed mRNA in the presence of chemical substance/The level of expressed mRNA in the absence of chemical substance (yeast gene YKL086W, cultured two hours with substance): 0.7 | The level of expressed mRNA in the presence of chemical substance/The level of expressed mRNA in the absence of chemical substance (yeast gene YKL151C, cultured two hours with substance): 2.3 | The level of expressed mRNA in the presence of chemical substance/The level of expressed mRNA in the absence of chemical substance (yeast gene YKL153W, cultured two hours with substance): 2.1 | The level of expressed mRNA in the presence of chemical substance/The level of expressed mRNA in the absence of chemical substance (yeast gene YKL195W, cultured two hours with substance): 1.0 | The level of expressed mRNA in the presence of chemical substance/The level of expressed mRNA in the absence of chemical substance (yeast gene YKR076W): 18.6 | The level of expressed mRNA in the presence of chemical substance/The level of expressed mRNA in the absence of chemical substance (yeast gene YKR091W, cultured two hours with substance): 1.1 | The level of expressed mRNA in the presence of chemical substance/The level of expressed mRNA in the absence of chemical substance (yeast gene YLL060C (detoxification protein gene)): 14.1 | The level of expressed mRNA in the presence of chemical substance/The level of expressed mRNA in the absence of chemical substance (yeast gene YLL060C (stress protein genes)): 14.1 | The level of expressed mRNA in the presence of chemical substance/The level of expressed mRNA in the absence of chemical substance (yeast gene YLR031W, cultured two hours with substance): 0.7 | The level of expressed mRNA in the presence of chemical substance/The level of expressed mRNA in the absence of chemical substance (yeast gene YLR054C, cultured two hours with substance): 0.7 | The level of expressed mRNA in the presence of chemical substance/The level of expressed mRNA in the absence of chemical substance (yeast gene YLR142W): 3.8 | The level of expressed mRNA in the presence of chemical substance/The level of expressed mRNA in the absence of chemical substance (yeast gene YLR149C, cultured two hours with substance): 2.8 | The level of expressed mRNA in the presence of chemical substance/The level of expressed mRNA in the absence of chemical substance (yeast gene YLR152C, cultured two hours with substance): 3.6 | The level of expressed mRNA in the presence of chemical substance/The level of expressed mRNA in the absence of chemical substance (yeast gene YLR194C, cultured two hours with substance): 1.4 | The level of expressed mRNA in the presence of chemical substance/The level of expressed mRNA in the absence of chemical substance (yeast gene YLR205C, cultured two hours with substance): 0.4 | The level of expressed mRNA in the presence of chemical substance/The level of expressed mRNA in the absence of chemical substance (yeast gene YLR297W, cultured two hours with substance): 3.5 | The level of expressed mRNA in the presence of chemical substance/The level of expressed mRNA in the absence of chemical substance (yeast gene YLR324W, cultured two hours with substance): 0.9 | The level of expressed mRNA in the presence of chemical substance/The level of expressed mRNA in the absence of chemical substance (yeast gene YLR346C, cultured two hours with substance): 0.5 | The level of expressed mRNA in the presence of chemical substance/The level of expressed mRNA in the absence of chemical substance (yeast gene YLR350W, cultured two hours with substance): 0.9 | The level of expressed mRNA in the presence of chemical substance/The level of expressed mRNA in the absence of chemical substance (yeast gene YLR387C, cultured two hours with substance): 0.9 | The level of expressed mRNA in the presence of chemical substance/The level of expressed mRNA in the absence of chemical substance (yeast gene YLR460C, cultured two hours with substance): 14.3 | The level of expressed mRNA in the presence of chemical substance/The level of expressed mRNA in the absence of chemical substance (yeast gene YML117W, cultured two hours with substance): 0.8 | The level of expressed mRNA in the presence of chemical substance/The level of expressed mRNA in the absence of chemical substance (yeast gene YML131W): 14.4 | The level of expressed mRNA in the presence of chemical substance/The level of expressed mRNA in the absence of chemical substance (yeast gene YMR009W, cultured two hours with substance): 2.1 | The level of expressed mRNA in the presence of chemical substance/The level of expressed mRNA in the absence of chemical substance (yeast gene YMR067C, cultured two hours with substance): 1.1 | The level of expressed mRNA in the presence of chemical substance/The level of expressed mRNA in the absence of chemical substance (yeast gene YMR090W, cultured two hours with substance): 8.8 | The level of expressed mRNA in the presence of chemical substance/The level of expressed mRNA in the absence of chemical substance (yeast gene YMR095C, cultured two hours with substance): 2.1 | The level of expressed mRNA in the presence of chemical substance/The level of expressed mRNA in the absence of chemical substance (yeast gene YMR097C, cultured two hours with substance): 1.5 | The level of expressed mRNA in the presence of chemical substance/The level of expressed mRNA in the absence of chemical substance (yeast gene YMR102C, cultured two hours with substance): 1.5 | The level of expressed mRNA in the presence of chemical substance/The level of expressed mRNA in the absence of chemical substance (yeast gene YMR107W, cultured two hours with substance): 3.0 | The level of expressed mRNA in the presence of chemical substance/The level of expressed mRNA in the absence of chemical substance (yeast gene YMR140W, cultured two hours with substance): 0.7 | The level of expressed mRNA in the presence of chemical substance/The level of expressed mRNA in the absence of chemical substance (yeast gene YMR180C, cultured two hours with substance): 0.7 | The level of expressed mRNA in the presence of chemical substance/The level of expressed mRNA in the absence of chemical substance (yeast gene YMR184W, cultured two hours with substance): 1.5 | The level of expressed mRNA in the presence of chemical substance/The level of expressed mRNA in the absence of chemical substance (yeast gene YMR191W, cultured two hours with substance): 2.3 | The level of expressed mRNA in the presence of chemical substance/The level of expressed mRNA in the absence of chemical substance (yeast gene YMR195W, cultured two hours with substance): 1.1 | The level of expressed mRNA in the presence of chemical substance/The level of expressed mRNA in the absence of chemical substance (yeast gene YMR295C, cultured two hours with substance): 1.2 | The level of expressed mRNA in the presence of chemical substance/The level of expressed mRNA in the absence of chemical substance (yeast gene YMR316W, cultured two hours with substance): 1.5 | The level of expressed mRNA in the presence of chemical substance/The level of expressed mRNA in the absence of chemical substance (yeast gene YNL044W, cultured two hours with substance): 1.1 | The level of expressed mRNA in the presence of chemical substance/The level of expressed mRNA in the absence of chemical substance (yeast gene YNL074C, cultured two hours with substance): 1.3 | The level of expressed mRNA in the presence of chemical substance/The level of expressed mRNA in the absence of chemical substance (yeast gene YNL092W, cultured two hours with substance): 0.7
